Measured values from paper PMC12068934 (Nature chemistry, 2024).

Assays:
SenA = SenA (Variovorax paradoxus, UniProt A0ACH4EUD1); experiment: preparative enzymatic synthesis, product NMR; assay type: biochemical; conditions: DTT 20 mM, pH 8, room temperature, 24 h
OvsA = OvsA (Vreelandella halophila, UniProt A0A9X4Y9G9); experiment: LC-MS after mBBr derivatization; assay type: biochemical; conditions: histidine 1 mM, DTT 4 mM, pH 8, room temperature

Structure (SMILES)	preparative enzymatic synthesis, product NMR (SenA; SeGlcNAc 6 mM)	LC-MS after mBBr derivatization (OvsA)	preparative enzymatic synthesis, product NMR (SenA; hercynine 5 mM)
C[N+](C)(C)[C@@H](Cc1cnc[nH]1)C(=O)[O-] [hercynine, Nα-trimethylhistidine]	large-scale reaction containing SenA and its substrates hercynine and SeGlcNAc		
CC(=O)N[C@@H]1[C@@H](O)[C@H](O)[C@@H](CO)O[C@H]1[SeH] [SeGlcNAc, N-acetyl-1-seleno-β-D-glucosamine]		reaction of the NHISS with SeGlcNAc and histidine resulted in rapid formation of a species	large-scale reaction containing SenA and its substrates hercynine and SeGlcNAc
